Reference: PubChem BioAssay AID206 (DTP/NCI, 2004)
Where “and” joins values, the source holds several entries; their conditions need not be identical. Identical values can stand only once. Records with an inconclusive call do not appear.

System: nude mice, HT29 intrarenal xenograft, tumor weight T/C
Assay: NCI In Vivo Anticancer Drug Screen. Data for tumor model HT29;CX-1 Human Adenocarcinoma (MER+) (intrarenal inoculation) in NU/NU Swiss (nude) mice
Conditions: endpoint: mean tumor weight change, higher = larger tumour
Procedure, shortened: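 Endpoint measured as tumor size or survival; ratio reported is treated group over vehicle controls.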

[1] = dose: 800.0 mg/kg/injection, schedule: Q04DX004 (sc), vehicle: saline with Tween-80
[2] = dose: 300.0 mg/kg/injection, schedule: Q04DX004 (sc), vehicle: saline with Tween-80
[3] = dose: 600.0 mg/kg/injection, schedule: Q04DX004 (sc), vehicle: saline with Tween-80
[4] = dose: 1200.0 mg/kg/injection, schedule: Q04DX004 (sc), vehicle: saline with Tween-80
[5] = dose: 150.0 mg/kg/injection, schedule: Q04DX004 (sc), vehicle: saline with Tween-80

Which results are given for `CC1(C)CC23C4COC(=O)C2CCC1C3CC4=O` (stereo unspecified)?
T/C (dose: 25.0 mg/kg/injection, schedule: Q04DX004 (sc), vehicle: DMSO): 56 % of control; T/C (dose: 50.0 mg/kg/injection, schedule: Q04DX004 (sc), vehicle: DMSO): 106 % of control; T/C (dose: 100.0 mg/kg/injection, schedule: Q04DX004 (sc), vehicle: DMSO): 103 % of control; T/C (dose: 300.0 mg/kg/injection, schedule: Q04DX004 (sc), vehicle: DMSO): 56 % of control; T/C (dose: 600.0 mg/kg/injection, schedule: Q04DX004 (sc), vehicle: DMSO): 64 % of control; T/C (dose: 1200.0 mg/kg/injection, schedule: Q04DX004 (sc), vehicle: DMSO): 88 % of control; T/C (dose: 2400.0 mg/kg/injection, schedule: Q04DX004 (sc), vehicle: DMSO): 114 % of control

What does the source list for `O=c1nc(-c2ccco2)sc(=O)[nH]1`?
T/C (dose: 300.0 mg/kg/injection, schedule: Q04DX004 (sc), vehicle: Klucel (hydroxypropylcellulose) (HPC)): 235 % of control; T/C (dose: 600.0 mg/kg/injection, schedule: Q04DX004 (sc), vehicle: Klucel (hydroxypropylcellulose) (HPC)): 98 % of control

How did the T/C (dose: 9.38 mg/kg/injection, schedule: Q04DX004 (sc), vehicle: Klucel (hydroxypropylcellulose) (HPC)) turn out when `CCC[CH2][Hg][Cl]` was run?
Its T/C is 83 % of control.

What about the T/C (dose: 18.75 mg/kg/injection, schedule: Q04DX004 (sc), vehicle: Klucel (hydroxypropylcellulose) (HPC)) of the same compound?
Its T/C is 72 % of control.

And the T/C (dose: 37.5 mg/kg/injection, schedule: Q04DX004 (sc), vehicle: Klucel (hydroxypropylcellulose) (HPC))?
The T/C was 45 % of control.

For `CC(=O)OCC1OC([S-])C(OC(C)=O)C(OC(C)=O)C1OC(C)=O.CC[PH+](CC)CC.CC[PH+](CC)CC.[Au].[Au]` (stereo unspecified), which T/C (dose: 5.0 mg/kg/injection, schedule: Q04DX004 (sc), vehicle: Klucel (hydroxypropylcellulose) (HPC)) is on record?
Its T/C is 177 % of control.

And the T/C (dose: 10.0 mg/kg/injection, schedule: Q04DX004 (sc), vehicle: Klucel (hydroxypropylcellulose) (HPC))?
The T/C was 113 % of control.

How did the T/C (dose: 200.0 mg/kg/injection, schedule: Q04DX004 (sc), vehicle: saline with Tween-80) turn out when `Cc1ccc(S(=O)(=O)NC(=O)OC23COCN2COC3)cc1` was run?
Its T/C is 84 % of control.

What about the T/C [1] of the same compound?
The T/C was 153 % of control.

And the T/C (dose: 1600.0 mg/kg/injection, schedule: Q04DX004 (sc), vehicle: saline with Tween-80)?
Its T/C is 121 % of control.

With `CC(C)[C@](O)(C(=O)OCC1=CC[N+]2([O-])CC[C@@H](O)[C@@H]12)[C@H](C)O` (stereo partly specified) as the compound, how does the T/C (dose: 100.0 mg/kg/injection, schedule: Q01DX010 (sc), vehicle: water) read?
The T/C was 38 % of control.

And the T/C (dose: 200.0 mg/kg/injection, schedule: Q01DX010 (sc), vehicle: water)?
The T/C was 48 % of control.

What about the T/C (dose: 400.0 mg/kg/injection, schedule: Q01DX010 (sc), vehicle: water) of the same compound?
The T/C was 36 % of control.

And the T/C (dose: 800.0 mg/kg/injection, schedule: Q01DX010 (sc), vehicle: water)?
Its T/C is 44 % of control.

How did the T/C (dose: 3.75 mg/kg/injection, schedule: Q04DX004 (sc), vehicle: Klucel (hydroxypropylcellulose) (HPC)) turn out when `Cc1c2ccc3ccccc3c2c[n+]2ccccc12` was run?
Its T/C is 84 % of control.

And the T/C (dose: 7.5 mg/kg/injection, schedule: Q04DX004 (sc), vehicle: Klucel (hydroxypropylcellulose) (HPC))?
The T/C was 66 % of control.

And the T/C (dose: 15.0 mg/kg/injection, schedule: Q04DX004 (sc), vehicle: Klucel (hydroxypropylcellulose) (HPC))?
Its T/C is 50 % of control.

And the T/C (dose: 30.0 mg/kg/injection, schedule: Q04DX004 (sc), vehicle: Klucel (hydroxypropylcellulose) (HPC))?
Its T/C is 41 % of control.

For `O=Cc1c(O)c2ccccc2[nH]c1=O`, which T/C [2] is on record?
The T/C was 79 % of control.

And the T/C [3]?
The T/C was 98 % of control.

And the T/C [4]?
The T/C was 65 % of control.

How did the T/C (dose: 400.0 mg/kg/injection, schedule: Q01DX010 (sc), vehicle: saline) turn out when `CN1c2c(nc(N)[nH]c2=O)NCC1CCNc1ccc(C(=O)NC(CCC(=O)O)C(=O)O)cc1` (stereo unspecified) was run?
Its T/C is 33 % of control.

And the T/C (dose: 800.0 mg/kg/injection, schedule: Q01DX010 (sc), vehicle: saline)?
The T/C was 51 % of control.

`CC(=O)OCC1(C)NC(=O)c2ccccc2O1` (stereo unspecified) was tested. Which T/C [5] did it give?
Its T/C is 78 % of control.

And the T/C [2]?
The T/C was 79 % of control.

And the T/C [3]?
Its T/C is 100 % of control.

And the T/C [4]?
Its T/C is 52 % of control.

Which results are given for `O=C1c2cccc3cc([N+](=O)[O-])cc(c23)C(=O)N1CCN1CCCC1`?
T/C (dose: 18.0 mg/kg/injection, schedule: Q04DX004 (sc), vehicle: saline with Tween-80): 110 % of control; T/C (dose: 36.0 mg/kg/injection, schedule: Q04DX004 (sc), vehicle: saline with Tween-80): 115 % of control

`COC(=Nc1ccccc1)SSC(C)C` was tested. Which T/C [5] did it give?
The T/C was 104 % of control.

And the T/C [2]?
The T/C was 118 % of control.

What about the T/C [3] of the same compound?
The T/C was 117 % of control.

And the T/C [4]?
Its T/C is 117 % of control.

Which T/C (dose: 50.0 mg/kg/injection, schedule: Q04DX004 (sc), vehicle: distilled water + Tween-80) does the source give for `CNC(=O)OCc1c(COC(=O)NC)c(-c2ccccc2)n(C)c1-c1ccccc1` here?
The T/C was 44 % of control.

What about the T/C (dose: 200.0 mg/kg/injection, schedule: Q04DX004 (sc), vehicle: distilled water + Tween-80) of the same compound?
Its T/C is 68 % of control.

And the T/C (dose: 400.0 mg/kg/injection, schedule: Q04DX004 (sc), vehicle: distilled water + Tween-80)?
The T/C was 104 % of control.

With `CN1C(=O)NC(c2ccc(Cl)cc2)(c2ccc(Cl)cc2)C1=O` as the compound, how does the T/C (dose: 50.0 mg/kg/injection, schedule: Q01DX010 (sc), vehicle: saline with Tween-80) read?
Its T/C is 97 % of control.

What about the T/C (dose: 100.0 mg/kg/injection, schedule: Q01DX010 (sc), vehicle: saline with Tween-80) of the same compound?
Its T/C is 109 % of control.

And the T/C (dose: 400.0 mg/kg/injection, schedule: Q01DX010 (sc), vehicle: saline with Tween-80)?
The T/C was 43 % of control.

Which results are given for `CCOC(=O)C(CC(C)C)NC(=O)C(Cc1ccc(N(CCCl)CCCl)cc1)NC(C)=O` (stereo unspecified)?
T/C (dose: 12.5 mg/kg/injection, schedule: Q01DX010 (sc), vehicle: saline with Tween-80): 66 % of control and 87 % of control; T/C (dose: 400.0 mg/kg/injection, schedule: Q04DX004 (sc), vehicle: saline with Tween-80): 62 % of control; T/C [1]: 32 % of control; T/C [4]: 29 % of control

For `CCC(=O)N(C)[C@@H](C)C(=O)O[C@H]1CC(=O)N(C)c2cc(cc(OC)c2Cl)C/C(C)=C/C=C[C@@H](OC)[C@@]2(O)C[C@H](OC(=O)N2)[C@@H](C)[C@@H]2O[C@@]12C`, which T/C (dose: 0.03 mg/kg/injection, schedule: Q01DX010 (sc), vehicle: saline + alcohol) is on record?
Its T/C is 171 % of control.

What about the T/C (dose: 0.06 mg/kg/injection, schedule: Q01DX010 (sc), vehicle: saline + alcohol) of the same compound?
The T/C was 65 % of control.

And the T/C (dose: 0.07 mg/kg/injection, schedule: Q01DX010 (sc), vehicle: saline + alcohol)?
Its T/C is 120 % of control.

And the T/C (dose: 0.12 mg/kg/injection, schedule: Q01DX010 (sc), vehicle: saline + alcohol)?
The T/C was 34 % of control.

And the T/C (dose: 0.13 mg/kg/injection, schedule: Q01DX010 (sc), vehicle: saline + alcohol)?
Its T/C is 69 % of control.

And the T/C (dose: 0.25 mg/kg/injection, schedule: Q01DX010 (sc), vehicle: saline + alcohol)?
The T/C was 2 % of control and 18 % of control.

How did the T/C (dose: 25.0 mg/kg/injection, schedule: Q04DX004 (sc), vehicle: saline) turn out when `c1cc(-c2cc3ccc(C4=NCCN4)cc3[nH]2)ccc1C1=NCCN1` was run?
Its T/C is 84 % of control.

What about the T/C (dose: 50.0 mg/kg/injection, schedule: Q04DX004 (sc), vehicle: saline) of the same compound?
Its T/C is 154 % of control.

And the T/C (dose: 100.0 mg/kg/injection, schedule: Q04DX004 (sc), vehicle: saline)?
Its T/C is 124 % of control.

How did the T/C (dose: 37.5 mg/kg/injection, schedule: Q04DX004 (sc), vehicle: saline with Tween-80) turn out when `COc1ccc([I+]c2cccc(Cl)c2)cc1Cl` was run?
Its T/C is 67 % of control.

And the T/C (dose: 75.0 mg/kg/injection, schedule: Q04DX004 (sc), vehicle: saline with Tween-80)?
Its T/C is 48 % of control.

What about the T/C [5] of the same compound?
The T/C was 58 % of control.

And the T/C [2]?
The T/C was 39 % of control.

And the T/C [3]?
Its T/C is 64 % of control.

`CCCCOC(=O)/C=C(\Br)C(=O)OCCCC` was tested. Which T/C (dose: 250.0 mg/kg/injection, schedule: Q04DX004 (sc), vehicle: saline with Tween-80) did it give?
The T/C was 69 % of control.

And the T/C (dose: 500.0 mg/kg/injection, schedule: Q04DX004 (sc), vehicle: saline with Tween-80)?
Its T/C is 43 % of control.

Which T/C (dose: 3.0 mg/kg/injection, schedule: Q04DX004 (sc), vehicle: Klucel (hydroxypropylcellulose) (HPC)) does the source give for `CCC[CH2][Sn]1([CH2]CCC)[O]C2C(CO)OC(n3ccc(N)nc3=O)C2[O]1` (stereo unspecified) here?
The T/C was 27 % of control.

And the T/C (dose: 6.0 mg/kg/injection, schedule: Q04DX004 (sc), vehicle: Klucel (hydroxypropylcellulose) (HPC))?
Its T/C is 85 % of control.

What about the T/C (dose: 12.0 mg/kg/injection, schedule: Q04DX004 (sc), vehicle: Klucel (hydroxypropylcellulose) (HPC)) of the same compound?
The T/C was 109 % of control.

And the T/C (dose: 24.0 mg/kg/injection, schedule: Q04DX004 (sc), vehicle: Klucel (hydroxypropylcellulose) (HPC))?
The T/C was 76 % of control.

What does the source list for `NCCc1cc(O)c(O)c(O)c1`?
T/C (dose: 200.0 mg/kg/injection, schedule: Q04DX004 (sc), vehicle: saline): 92 % of control; T/C (dose: 400.0 mg/kg/injection, schedule: Q04DX004 (sc), vehicle: saline): 120 % of control; T/C (dose: 800.0 mg/kg/injection, schedule: Q04DX004 (sc), vehicle: saline): 101 % of control; T/C (dose: 1600.0 mg/kg/injection, schedule: Q04DX004 (sc), vehicle: saline): 61 % of control

How did the T/C (dose: 50.0 mg/kg/injection, schedule: Q01DX010 (sc), vehicle: Klucel (hydroxypropylcellulose) (HPC)) turn out when `C/C(=C\c1ccccc1)[N+](=O)[O-]` was run?
The T/C was 91 % of control.

What about the T/C (dose: 100.0 mg/kg/injection, schedule: Q01DX010 (sc), vehicle: Klucel (hydroxypropylcellulose) (HPC)) of the same compound?
The T/C was 110 % of control.
